The results in this text go back to ChEMBL document CHEMBL3393044, “Amphirionin-2, a novel linear polyketide with potent cytotoxic activity from a marine dinoflagellate Amphidinium species” (Bioorg Med Chem Lett, 2015).

For orientation: IC50 means the concentration needed to halve the response being measured. As usually defined, the T/C is the ratio of treated to control.

In one experiment the test system is A549. The experiment in a line: Cytotoxicity against human A549 cells after 72 hrs by WST-8 assay. The experiment is classed as functional, cell-based. Conditions: A549, 72 h.
For a further experiment, the species on record is Homo sapiens. Kind of experiment: Binding affinity to actin (unknown origin) by surface plasmon resonance analysis. Background: SPR reads the build-up and loss of mass on a sensor chip optically.
The nature of experiment [1]: Cytotoxicity against human Caco2 cells after 72 hrs by WST-8 assay. The experiment is classed as functional, cell-based. Conditions: Caco-2, 72 h. Background: Tetrazolium assays rely on reduction of a dye to a coloured formazan, in cell work by metabolically active cells.
A further experiment concerns HeLa. Kind of experiment: Cytotoxicity against human HeLa cells assessed as growth inhibition at 1 ug/ml after 72 hrs by WST-8 assay. Format: functional. Particulars: read-out: GI.
The subject of a further experiment is P388. The experiment in a line: Antitumor activity against mouse P388 cells xenografted in CDF1 mouse at 0.5 mg/kg administered on day 1 and day 5 relative to control. Format: functional.

Converted amounts (≈) assume the structure as drawn. The source made the active and inactive calls. The calls are words filed in the database; no cut-off is given here.

With `C=CC[C@H](C)[C@@H](O)C[C@@H]1C[C@H]2O[C@H](/C=C(C)/C=C/C[C@H]3C[C@@H]4O[C@@H](/C=C/CCCCC)C[C@@H]4O3)C[C@H]2O1`, the figures for the half-maximal inhibitory concentration (IC50) (with A549; in experiment [1]) were 0.6 µg/mL (≈ 1.17 µM) and 0.1 µg/mL (≈ 0.194 µM), respectively. Further, the outcome in the experiment filed under Homo sapiens was Active. For the same molecule, in the experiment on HeLa, the inhibition of growth at 1 µg/mL is 20%. Moreover, the T/C with P388 worked out at 120%.
